This is an account of results in US8143226B2, “Tyrosine kinase receptor antagonists and methods of treatment for breast cancer” (The Regents of the University of California, priority 2005, dated 2012).

Series [1] deals with T1, IGF-1R kinase domain peptide (Homo sapiens, UniProt P08069).
T1 construct: purchased Upstate, USA (Charlottesville, Va.)
In words: IGF-1R kinase domain peptide autophosphorylation (western blot). The following applies: peptide incubated with NDGA prior to 20 μM ATP. Type of series: biochemical. Here is the method:
ATP was then added at a final concentration of 20 μM. Autophosphorylation of peptide was allowed to occur for 20 min at 22° C. The reaction was stopped by the addition of SDS-reducing buffer, and the samples were run on SDS-PAGE. Following transfer to nitrocellulose membrane, peptide autophosphorylation was determined by western blotting employing an antibody against phosphotyrosine diluted to 0.5 μg/ml in phosphate buffered saline (PBS) containing 3% milk. The membrane was incubated with the antibody overnight at 4 C. Next, blots were washed 3 times with PBS, then incubated with HRP conjugated sheep anti-rabbit IgG (Amersham, Piscataway, N.J.) diluted 1:50,000 in PBS with 3% milk for 90 minutes at room temperature. After washing, blots were incubated with Super-Signal (Pierce, Rockford, Ill.), and exposed to film. Values were determined by scanning densitometry.

Another series concerns the target T2, rodent HER2/neu receptor (Rattus norvegicus, UniProt P06494).
T2 construct: made in house; host or cells: MCNeuA mouse mammary carcinoma cells (MMTV/neu transgenic), partially purified by wheat germ agglutinin chromatography
As to the kind of experiment: Autophosphorylation of isolated HER2/neu (western blot). Type of series: biochemical. The note with it: preincubation 20 minutes prior to 10 μM ATP. The protocol: IGF-1 and HER2/neu receptors were partially purified by WGA chromatography of cells overexpressing the protein of interest. To isolate IGF-1R, CHO cells transfected with and overexpressing the human IGF-1R (CHOIGF-1R) were plated in T-150 flasks and grown in DMEM supplemented with 10% fetal calf serum (FCS) until 80% confluent. Cells were harvested in the basal state and solubilized in 50 mM HEPES, 10% glycerol, 1% Triton X-100, 150 mM NaCl, 5 μM EGTA, 0.24 mg/ml aminoethyl-benzensulfonyl fluoride (AEBSF), 10 μg/ml aprotinin, 25 mM benzamidine, 10 μg soybean trypsin inhibitor, and 5 μg/ml leuptin for one hour at 4° C. Samples were centrifuged for 60 minutes at 100,000 g and solubilized extract collected. Rodent HER2/neu receptors were collected from MCNeuA cells crown under identical conditions and processed similarly. […] WGA fractions containing RTK of interest were determined by SDS page and a western blot that employed antibodies against either the IGF-1R or HER2/neu as appropriate.
Autophosphorylation of HER2/neu in WGA preparations enriched in this RTK were determined in the absence of ligand. […] Following transfer to nitrocellulose membrane, receptor autophosphorylation was determined by a western blot that employed a phosphospecific antibody against the pNeu (Tyr1248) diluted 1:1000 in Superblock. […] Values were determined by scanning densitometry.

Another series addresses T3, HER2/neu (Rattus norvegicus, UniProt P06494).
T3 construct: expressed in transfected cells; host or cells: MCNeuA mouse mammary carcinoma cells (MMTV/neu transgene), in culture or grown as tumours in neuTg mice
In words: HER2/neu autophosphorylation in MCNeuA cells (western blot). Type of series: cell-based, mouse. The note with it: read-out: IC50, ligand-independent tyrosine phosphorylation of HER2/neu. Here is the method:
HER2/neu receptor autophosphorylation was determined in serum-starved MCNeuA or SKBR3 cells, which were collected in the basal state, due to the ligand-independent nature of HER2/neu activation. Following a one-hour incubation in serum-free media, soluble extracts of cells were prepared as above. HER2/neu autophosphorylation was determined by a western blot that employed a phosphospecific antibody, pNeu(Tyr1248) as described above.

A further series deals with SH-SY5Y and SHEP cells. As to the kind of experiment: IGF-I stimulated motility of neuroblastoma cells on gold particle-coated coverslips. Type of series: cell-based, human. The following applies: 30 μM NDGA, 1 nM IGF-I, 6 h. Here is the method: Measurement of cell motility. Neuroblastoma cells were plated on gold particle-coated coverslips (prepared as described in (30)) in serum-free media at a density of 25,000 cells per coverslip. The cells were incubated for 2 h to allow adhesion to the coverslip. […] 1 nM IGF-I was then added to some wells. Incubation continued for 6 h, followed by fixation with 3.5% glutaraldehyde. Coverslips were mounted on glass slides, then viewed on a Lietz Orthoplan inverted microscope attached to a Sony videoprocessor. Digital images of the tracks etched into the gold by the cells from 3 separately treated coverslips per condition were collected at 200× magnification using Adobe Photoshop software. For each condition, the areas of 120 tracks made by individual cells were measured with NIH Image 1.61 software.

Another series concerns MCF-7/neo cells. In words: Growth of MCF-7/neo cells with RTK inhibitors, 6 days (CyQuant). Type of series: cell-based. The note with it: Homo sapiens, MCF7, 144 h, read-out: one half maximal effect on growth. Here is the method: MCF-7/neo or MCF-7/HER2-18 cells were plated in 96 well plates (4×10^3 cells/well) in 100 μl/well of DMEM-10 medium. […] Media with inhibitors was refreshed on day 3 and the cultures were harvested on day 6. The plates were inverted onto paper towels with gentle blotting to remove growth medium without disrupting adherent cells. Each plate was kept at −80° C. until assayed for cell growth. After thawing the plate at room temperature, 200 μl of CyQuant GR solution was added to each well and the plates were incubated in the dark for five minutes. Fluorescence was measured with a SpectraMax Gemini XS fluorescence microplate reader (Molecular Devices) with 480-nm excitation and 520-nm emission.

The next series relates to MCF-7/HER2-18 cells. In words: Tamoxifen and/or NDGA growth inhibition of MCF-7/HER2-18 cells (CyQuant). The note with it: Homo sapiens. Type of series: cell-based. The protocol:
Cells were estrogen-starved for three days in DMEM containing 10% charcoal-[…]-stripped FCS (CDSS) prior to their plating in 96 well plates. Cells were plated in 100 μl of the same media, allowed to adhere overnight, and then were switched to DMEM+10% CDSS supplemented with 100 pM estrogen. […] The media and inhibitors were refreshed on day 3, the cultures were harvested on day 6, and a CyQuant assay was performed as described above.

A further series relates to pancreatic cancer cells. As to the kind of experiment: Growth of pancreatic cancer cells in vitro. Type of series: cell-based. The note with it: FIG. 3.
The conditions of series [2]: single injection, mouse, intravenous; cited from earlier work.
For another series, the target named is EGF receptor (Homo sapiens, UniProt P00533). The following applies: Seufferlein et al. 2002; cited from earlier work.
Chain of EGF receptor (P00533 25-1210): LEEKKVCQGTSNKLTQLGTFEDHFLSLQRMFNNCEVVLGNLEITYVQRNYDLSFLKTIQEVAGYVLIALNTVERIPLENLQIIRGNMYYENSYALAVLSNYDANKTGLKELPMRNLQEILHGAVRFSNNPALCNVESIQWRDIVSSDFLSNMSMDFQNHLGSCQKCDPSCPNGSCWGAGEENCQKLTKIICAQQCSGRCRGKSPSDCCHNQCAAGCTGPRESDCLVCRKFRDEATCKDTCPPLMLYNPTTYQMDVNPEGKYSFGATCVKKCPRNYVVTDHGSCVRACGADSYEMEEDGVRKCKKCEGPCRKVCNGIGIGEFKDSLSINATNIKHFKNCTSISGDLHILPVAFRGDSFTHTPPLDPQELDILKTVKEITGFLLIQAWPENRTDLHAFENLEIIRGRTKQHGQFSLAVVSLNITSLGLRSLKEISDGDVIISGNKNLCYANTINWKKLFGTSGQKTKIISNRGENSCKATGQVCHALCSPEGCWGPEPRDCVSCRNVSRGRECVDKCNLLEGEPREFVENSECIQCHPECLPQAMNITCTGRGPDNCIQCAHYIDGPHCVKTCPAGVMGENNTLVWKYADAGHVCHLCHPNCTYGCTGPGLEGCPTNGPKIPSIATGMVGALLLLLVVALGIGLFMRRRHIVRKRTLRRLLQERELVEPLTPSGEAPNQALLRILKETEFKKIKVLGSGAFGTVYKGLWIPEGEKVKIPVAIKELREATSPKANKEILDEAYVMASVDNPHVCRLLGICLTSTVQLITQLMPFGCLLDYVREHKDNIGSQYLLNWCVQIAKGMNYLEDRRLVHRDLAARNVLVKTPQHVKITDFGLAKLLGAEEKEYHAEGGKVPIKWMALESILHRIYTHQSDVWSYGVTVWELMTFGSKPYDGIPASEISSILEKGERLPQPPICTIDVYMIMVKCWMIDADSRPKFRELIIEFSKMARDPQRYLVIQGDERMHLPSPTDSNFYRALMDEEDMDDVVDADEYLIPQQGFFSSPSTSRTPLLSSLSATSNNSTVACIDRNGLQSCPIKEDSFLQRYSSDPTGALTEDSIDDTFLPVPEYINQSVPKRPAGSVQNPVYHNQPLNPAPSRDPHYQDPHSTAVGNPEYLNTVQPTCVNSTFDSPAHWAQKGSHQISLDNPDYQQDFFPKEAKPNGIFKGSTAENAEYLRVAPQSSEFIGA

T1 sequence (P08069 989-1367): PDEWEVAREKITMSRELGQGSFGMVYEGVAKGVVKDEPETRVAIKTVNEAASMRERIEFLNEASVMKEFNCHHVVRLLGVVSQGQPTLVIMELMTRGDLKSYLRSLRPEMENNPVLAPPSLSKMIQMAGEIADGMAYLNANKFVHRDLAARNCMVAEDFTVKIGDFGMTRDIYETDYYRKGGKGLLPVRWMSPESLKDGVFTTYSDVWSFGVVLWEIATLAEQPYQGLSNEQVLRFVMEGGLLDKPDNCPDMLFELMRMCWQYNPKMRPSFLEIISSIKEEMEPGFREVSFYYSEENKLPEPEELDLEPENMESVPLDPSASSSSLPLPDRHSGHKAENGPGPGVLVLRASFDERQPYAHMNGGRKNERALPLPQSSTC
T3 sequence (P06494 23-1257): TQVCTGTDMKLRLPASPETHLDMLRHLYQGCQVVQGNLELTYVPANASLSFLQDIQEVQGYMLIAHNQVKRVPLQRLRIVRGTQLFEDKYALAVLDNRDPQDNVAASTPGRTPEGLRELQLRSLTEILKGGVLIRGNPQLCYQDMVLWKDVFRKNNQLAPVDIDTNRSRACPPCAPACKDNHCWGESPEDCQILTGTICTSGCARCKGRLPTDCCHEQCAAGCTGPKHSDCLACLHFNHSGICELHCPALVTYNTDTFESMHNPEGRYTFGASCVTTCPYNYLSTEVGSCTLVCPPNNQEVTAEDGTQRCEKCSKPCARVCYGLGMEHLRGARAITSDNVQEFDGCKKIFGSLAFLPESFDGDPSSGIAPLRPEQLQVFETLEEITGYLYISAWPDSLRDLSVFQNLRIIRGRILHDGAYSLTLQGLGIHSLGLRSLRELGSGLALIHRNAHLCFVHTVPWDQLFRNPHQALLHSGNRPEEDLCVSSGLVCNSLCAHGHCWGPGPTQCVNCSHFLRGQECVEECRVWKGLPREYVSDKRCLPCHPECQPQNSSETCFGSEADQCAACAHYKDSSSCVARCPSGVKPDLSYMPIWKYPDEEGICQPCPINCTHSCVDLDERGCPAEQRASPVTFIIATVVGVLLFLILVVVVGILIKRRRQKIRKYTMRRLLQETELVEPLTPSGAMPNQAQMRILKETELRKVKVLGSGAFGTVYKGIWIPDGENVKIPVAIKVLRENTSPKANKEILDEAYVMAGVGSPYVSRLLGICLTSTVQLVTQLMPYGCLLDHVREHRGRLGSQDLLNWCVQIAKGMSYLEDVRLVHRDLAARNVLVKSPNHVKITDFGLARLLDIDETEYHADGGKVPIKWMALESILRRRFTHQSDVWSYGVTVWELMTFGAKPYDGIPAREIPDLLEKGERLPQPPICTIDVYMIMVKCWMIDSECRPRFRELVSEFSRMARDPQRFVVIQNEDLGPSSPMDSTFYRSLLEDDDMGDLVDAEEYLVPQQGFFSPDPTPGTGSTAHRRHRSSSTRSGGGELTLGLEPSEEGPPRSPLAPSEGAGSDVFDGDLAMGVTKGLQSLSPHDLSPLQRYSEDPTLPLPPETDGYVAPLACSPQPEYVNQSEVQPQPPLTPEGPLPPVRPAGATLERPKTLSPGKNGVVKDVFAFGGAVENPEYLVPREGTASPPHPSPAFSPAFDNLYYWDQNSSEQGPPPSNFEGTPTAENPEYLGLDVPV
T2 sequence (P06494 23-1257): as above

For the compound `CC(Cc1ccc(O)c(O)c1)C(C)Cc1ccc(O)c(O)c1` (stereo not shown) [NDGA, nordihydroguaiaretic acid], the “concentration at which activation of the IGF-1R kinase domain was inhibited” value in series [1] was 1 µM. The “ATP-induced increase in ligand-independent HER2/neu autophosphorylation” value at rodent HER2/neu receptor is “abolished”. Moreover, the IC50 was determined as 15 ± 4 µM at HER2/neu and 12.5 µM in the series with MCF-7/neo cells. Also, the “IGF-I induced increase in motility” value with SH-SY5Y and SHEP cells was “strongly suppressed”. This compound also showed an inhibition at 10 µM in the series with MCF-7/HER2-18 cells of 9%. Besides, the inhibition at 15 µM in the series with MCF-7/HER2-18 cells was 38%. In addition, the “growth of pancreatic cancer cells in vitro” value in the series with pancreatic cancer cells was “inhibiting”. Moreover, the terminal half-life in series [2] was 2.25 h. In addition, the EGF receptor phosphorylation entry on EGF receptor is “no affect”.
